This is an account of results in PubChem BioAssay AID1259407 (Chemical Carcinogenesis Research Information System (CCRIS), 2018).

Molecules are shown by their SMILES. Activity calls are given as the source filed them. The rule behind the calls is not given here.

The series has as its system CCRIS mutagenicity, Ames/micronucleus/aberration tests. Briefly: CCRIS mutagenicity studies.
[1] abbreviates: Test System: AMES SALMONELLA TYPHIMURIUM, Strain/Indicator: TA1535, Metabolic Activation: NONE, Method: PREINCUBATION
Where [2] appears, read: Test System: AMES SALMONELLA TYPHIMURIUM, Strain/Indicator: TA1537, Metabolic Activation: NONE, Method: PREINCUBATION
Where [3] appears, read: Test System: AMES SALMONELLA TYPHIMURIUM, Strain/Indicator: TA97, Metabolic Activation: HAMSTER, LIVER, S-9, AROCLOR 1254 (10%), Method: PREINCUBATION
[4] abbreviates: Test System: AMES SALMONELLA TYPHIMURIUM, Strain/Indicator: TA97, Metabolic Activation: HAMSTER, LIVER, S-9, AROCLOR 1254 (30%), Method: PREINCUBATION
The mark [5] stands for this setting: Test System: AMES SALMONELLA TYPHIMURIUM, Strain/Indicator: TA97, Metabolic Activation: NONE, Method: PREINCUBATION
[6] abbreviates: Test System: AMES SALMONELLA TYPHIMURIUM, Strain/Indicator: TA97, Metabolic Activation: RAT, LIVER, S-9, AROCLOR 1254 (10%), Method: PREINCUBATION
Setting [7] is: Test System: AMES SALMONELLA TYPHIMURIUM, Strain/Indicator: TA97, Metabolic Activation: RAT, LIVER, S-9, AROCLOR 1254 (30%), Method: PREINCUBATION
The mark [8] stands for this setting: Test System: AMES SALMONELLA TYPHIMURIUM, Strain/Indicator: TA98, Metabolic Activation: HAMSTER, LIVER, S-9, AROCLOR 1254 (10%), Method: PREINCUBATION
Where [9] appears, read: Test System: AMES SALMONELLA TYPHIMURIUM, Strain/Indicator: TA98, Metabolic Activation: HAMSTER, LIVER, S-9, AROCLOR 1254 (30%), Method: PREINCUBATION
The mark [10] stands for this setting: Test System: AMES SALMONELLA TYPHIMURIUM, Strain/Indicator: TA98, Metabolic Activation: NONE, Method: PREINCUBATION
[11] abbreviates: Test System: AMES SALMONELLA TYPHIMURIUM, Strain/Indicator: TA98, Metabolic Activation: RAT, LIVER, S-9, AROCLOR 1254 (10%), Method: PREINCUBATION
Setting [12] is: Test System: AMES SALMONELLA TYPHIMURIUM, Strain/Indicator: TA98, Metabolic Activation: RAT, LIVER, S-9, AROCLOR 1254 (30%), Method: PREINCUBATION
Where [13] appears, read: Test System: AMES SALMONELLA TYPHIMURIUM, Strain/Indicator: TA100, Metabolic Activation: HAMSTER, LIVER, S-9, AROCLOR 1254 (10%), Method: PREINCUBATION
[14] abbreviates: Test System: AMES SALMONELLA TYPHIMURIUM, Strain/Indicator: TA100, Metabolic Activation: HAMSTER, LIVER, S-9, AROCLOR 1254 (30%), Method: PREINCUBATION
[15] abbreviates: Test System: AMES SALMONELLA TYPHIMURIUM, Strain/Indicator: TA100, Metabolic Activation: NONE, Method: PREINCUBATION
[16] abbreviates: Test System: AMES SALMONELLA TYPHIMURIUM, Strain/Indicator: TA100, Metabolic Activation: RAT, LIVER, S-9, AROCLOR 1254 (10%), Method: PREINCUBATION
[17] abbreviates: Test System: AMES SALMONELLA TYPHIMURIUM, Strain/Indicator: TA100, Metabolic Activation: RAT, LIVER, S-9, AROCLOR 1254 (30%), Method: PREINCUBATION
The mark [18] stands for this setting: Test System: AMES SALMONELLA TYPHIMURIUM, Strain/Indicator: TA1535, Metabolic Activation: HAMSTER, LIVER, S-9, AROCLOR 1254 (10%), Method: PREINCUBATION
Where [19] appears, read: Test System: AMES SALMONELLA TYPHIMURIUM, Strain/Indicator: TA1535, Metabolic Activation: HAMSTER, LIVER, S-9, AROCLOR 1254 (30%), Method: PREINCUBATION
The mark [20] stands for this setting: Test System: AMES SALMONELLA TYPHIMURIUM, Strain/Indicator: TA1535, Metabolic Activation: RAT, LIVER, S-9, AROCLOR 1254 (10%), Method: PREINCUBATION
The mark [21] stands for this setting: Test System: AMES SALMONELLA TYPHIMURIUM, Strain/Indicator: TA1535, Metabolic Activation: RAT, LIVER, S-9, AROCLOR 1254 (30%), Method: PREINCUBATION
The mark [22] stands for this setting: Test System: AMES SALMONELLA TYPHIMURIUM, Strain/Indicator: TA100, Metabolic Activation: NONE, Method: STANDARD PLATE.

Consider `CN(N)C=O`, for which the mutagenic call under setting [1] was “inactive; negative”; the mutagenic call (Test System: AMES SALMONELLA TYPHIMURIUM, Strain/Indicator: TA1535, Metabolic Activation: RAT, LIVER, S-9, AROCLOR 1254, Method: PREINCUBATION) is “inactive; negative”; the mutagenic call under setting [2] was “inactive; negative”; the mutagenic call (Test System: AMES SALMONELLA TYPHIMURIUM, Strain/Indicator: TA1537, Metabolic Activation: RAT, LIVER, S-9, AROCLOR 1254, Method: PREINCUBATION) is “inactive; negative”.

As for `CCCCCCCCCCCCCCCCCC[N+](C)(C)Cc1ccccc1`, the mutagenic call is, setting by setting: under setting [3], “inactive; negative”; under setting [4], “inactive; negative”; under setting [5], “inactive; negative”; under setting [6], “inactive; negative”; under setting [7], “inactive; negative”; under setting [8], “inactive; negative”. Also, the mutagenic call is, setting by setting: under setting [9], “inactive; negative”; under setting [10], “inactive; negative”; under setting [11], “inactive; negative”; under setting [12], “inactive; negative”; under setting [13], “inactive; negative”; under setting [14], “inactive; negative”. Besides, the mutagenic call under setting [15] was “inactive; negative”; the mutagenic call under setting [16] was “inactive; negative”; the mutagenic call under setting [17] was “inactive; negative”; the mutagenic call under setting [18] is “inactive; negative”; the mutagenic call under setting [19] was “inactive; negative”; the mutagenic call under setting [1] was “inactive; negative”. In addition, the mutagenic call reads like this: under setting [20], “inactive; negative”; under setting [21], “inactive; negative”; (Test System: AMES SALMONELLA TYPHIMURIUM, Strain/Indicator: TA1537, Metabolic Activation: HAMSTER, LIVER, S-9, AROCLOR 1254 (30%), Method: PREINCUBATION) “inactive; negative”; under setting [2], “inactive; negative”; (Test System: AMES SALMONELLA TYPHIMURIUM, Strain/Indicator: TA1537, Metabolic Activation: RAT, LIVER, S-9, AROCLOR 1254 (30%), Method: PREINCUBATION) “inactive; negative”.

For `BrCc1ccc2cccc3c2c1-c1ccccc1-3`, the mutagenic call was “active; positive” (Test System: AMES SALMONELLA TYPHIMURIUM, Strain/Indicator: TA98, Metabolic Activation: NONE, Method: STANDARD PLATE) and “active; positive” under setting [22].

`C[C@H](CCC(=O)O)[C@H]1CC[C@H]2[C@@H]3[C@H](O)C[C@@H]4C[C@H](O)CC[C@]4(C)[C@H]3CC[C@]12C`: the mutagenic call is “inactive; negative” under setting [22] and “inactive; negative” (Test System: AMES SALMONELLA TYPHIMURIUM, Strain/Indicator: TA100, Metabolic Activation: RAT, LIVER, S-9, AROCLOR 1254, Method: STANDARD PLATE).

With `Nc1c(Cl)cc(Cl)cc1Cl`, the mutagenic call was “inactive; negative” (End Point: IN VITRO CHROMOSOMAL ABERRATIONS, Test System: CHL CELLS, Metabolic Activation: NONE); “inactive; negative” (End Point: IN VITRO CHROMOSOMAL ABERRATIONS, Test System: CHL CELLS, Metabolic Activation: RAT, LIVER, S-9, SODIUM PHENOBARBITAL AND 5,6-BENZOFLAVONE); “inactive; negative” under setting [3]; “inactive; negative” under setting [4]; “inactive; negative” under setting [5]; “inactive; negative” under setting [6]. Further, the mutagenic call reads like this: under setting [7], “inactive; negative”; under setting [8], “inactive; negative”; under setting [9], “inactive; negative”; under setting [10], “inactive; negative”; under setting [11], “inactive; negative”; under setting [12], “inactive; negative”. For the same compound, the mutagenic call is, setting by setting: (Test System: AMES SALMONELLA TYPHIMURIUM, Strain/Indicator: TA100, Metabolic Activation: HAMSTER, LIVER, S-9, AROCLOR 1254 (5%), Method: PREINCUBATION) “inactive; negative”; under setting [13], “inactive; negative”; under setting [14], “inactive; negative”; under setting [15], “inactive; negative”; (Test System: AMES SALMONELLA TYPHIMURIUM, Strain/Indicator: TA100, Metabolic Activation: RAT, LIVER, S-9, AROCLOR 1254 (5%), Method: PREINCUBATION) “inactive; negative”; under setting [16], “inactive; negative”. The mutagenic call under setting [17] is “inactive; negative”; the mutagenic call under setting [18] was “inactive; negative”; the mutagenic call under setting [19] is “inactive; negative”; the mutagenic call under setting [1] was “inactive; negative”; the mutagenic call under setting [20] was “inactive; negative”; the mutagenic call under setting [21] is “inactive; negative”. Where the note is “Test System: UDS RODENT HEPATOCYTES, Strain/Indicator: THY INCORP (NON-S-PHASE), Metabolic Activation: NONE, Method: AUTORADIOGRAPHY”, the mutagenic call was “inactive; negative”.
